Measurements taken from patent US20060030730A1, “Purification and production methods of 1-aminocyclopropanecarboxylic acid” (Daicel Chemical Industries, Ltd., priority 2004, published 2006).

Assay: Solubility of 1-aminocyclopropanecarboxylic acid in solvents
Assay type: physicochemical

Which results are given for `NC1(C(=O)O)CC1` [1-aminocyclopropanecarboxylic acid]?
solubility in methanol (solvent methanol): about 1.0 % (wt/wt); solubility in organic acid having one to five carbon atoms (solvent: organic acid having one to five carbon atoms (e.g. acetic acid)): highly soluble
